This is an account of results in ChEMBL document CHEMBL1201862, “PubChem BioAssay data set” (2004).

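The compound was tested at five concentrations on cells cultured in 96-well plates, with a 48-hour exposure period. At the GI50, growth is halved.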 Calls of active or inactive are those of the source. No stated cut-off is given here; in the data, active = GI50 up to about 1.1 µM and inactive = higher.

Test systems include A498; A549; HOP-62; LOX IMVI; MOLT-4; NCI-H226; NCI-H23; NCI-H522; OVCAR-4; OVCAR-8; RPMI-8226; SK-MEL-28; SW-620; UACC-257; UACC-62; SNB-75.
What all share (assay): NCI-60 cell line screen, 48 h

Regarding `COc1ccc(CC#N)c(OCc2ccccc2)c1`, the GI50 with A498 is 11.2 µM (inactive); in the experiment on A549, 78.3 µM (inactive); in the experiment with HOP-62, > 100 µM (inactive); with LOX IMVI, 43.8 µM (inactive); in the experiment with MOLT-4, 30.3 µM (inactive); in the experiment with NCI-H226 it was 6.73 µM (inactive). The GI50 in the experiment with NCI-H23 was 77.8 µM (inactive); with NCI-H522 it was 38.9 µM (inactive); in the experiment on OVCAR-4, 71.6 µM (inactive); in the experiment with OVCAR-8 it was > 100 µM (inactive); in the experiment on RPMI-8226 it was 43.3 µM (inactive); in the experiment on SK-MEL-28, 23.9 µM (inactive). The results for the GI50 in the experiment with SW-620, in the experiment with UACC-257 and with UACC-62 were 31 µM (inactive), 39.3 µM (inactive) and 28.8 µM (inactive), respectively.

For `O=c1c2ccccc2oc2ccccc12.Oc1cccc2cccnc12`, the GI50 in the experiment on A498 is 16.8 µM (inactive); in the experiment on A549 it was 2.63 µM (inactive); in the experiment with HOP-62, 7.43 µM (inactive); in the experiment with LOX IMVI, 1.49 µM (inactive); with MOLT-4, 0.607 µM (active); with NCI-H522, 12.9 µM (inactive). Besides, the GI50 in the experiment with OVCAR-4 was 5.89 µM (inactive); in the experiment on OVCAR-8 it was 2.36 µM (inactive); in the experiment on RPMI-8226, 5.41 µM (inactive); in the experiment with SNB-75 it was 2.29 µM (inactive); in the experiment with SW-620, 1.77 µM (inactive); with UACC-257, 2.73 µM (inactive). Further, in the experiment with UACC-62, the GI50 was 3.76 µM (inactive).

On to `O=C(O)c1ccc(/N=N/c2cc(S(=O)(=O)O)c3cccnc3c2O)cc1`, for which the GI50 in the experiment with A498, in the experiment on A549, in the experiment on HOP-62, with LOX IMVI, in the experiment on MOLT-4 and in the experiment with NCI-H226 was > 100 µM (inactive) in each case. Moreover, the GI50 with NCI-H23, in the experiment with OVCAR-4, in the experiment on OVCAR-8, with RPMI-8226, in the experiment on SK-MEL-28 and with SNB-75 was > 100 µM (inactive) in each case. Moreover, the GI50 with SW-620 and with UACC-257 was > 100 µM (inactive) in each case.

Consider `CCCCOC(=O)NC(=O)c1cn(CCSCCOC(=O)NCCCCCCNC(=O)OCCSCCn2cc(C(=O)NC(=O)OCCCC)c(=O)[nH]c2=O)c(=O)[nH]c1=O`, for which the GI50 in the experiment with A498 was 29.4 µM (inactive); in the experiment with A549, > 100 µM (inactive); with HOP-62, 44.6 µM (inactive); in the experiment with LOX IMVI, > 100 µM (inactive); in the experiment with NCI-H23, 27.4 µM (inactive); in the experiment on NCI-H522, 32.6 µM (inactive). The GI50 with OVCAR-4 was > 100 µM (inactive); with RPMI-8226, > 100 µM (inactive); in the experiment with SK-MEL-28, > 100 µM (inactive); in the experiment on SNB-75, 19 µM (inactive); with SW-620, > 10 µM (inactive); in the experiment on UACC-257, > 100 µM (inactive). In addition, in the experiment on UACC-62, the GI50 was 41.5 µM (inactive).

`CCOc1ccc(NC2=NC(=O)C(CC(=O)Nc3ccc(Cl)cc3Cl)S2)cc1` (stereo not given): the GI50 with A498 is 68.7 µM (inactive); in the experiment on A549 it was > 100 µM (inactive); in the experiment with HOP-62, > 100 µM (inactive); in the experiment with LOX IMVI, > 100 µM (inactive); in the experiment on MOLT-4 it was 43.8 µM (inactive); in the experiment with NCI-H23, > 100 µM (inactive). Also, the GI50 in the experiment on OVCAR-4, in the experiment on OVCAR-8, in the experiment with RPMI-8226, in the experiment with SK-MEL-28, with SNB-75 and in the experiment on SW-620 was > 100 µM (inactive) in each case. Also, the GI50 in the experiment with UACC-257 and in the experiment with UACC-62 was > 100 µM (inactive) in each case.

Consider `C[C@@H]1O[C@@H](O[C@H]2[C@H](Oc3cc(O)c4c(=O)cc(-c5ccc(O)cc5)oc4c3)O[C@H](CO)[C@@H](O)[C@@H]2O)[C@H](O)[C@H](O)[C@H]1O` [RHOIFOLIN], for which the GI50 in the experiment with A498, in the experiment with A549, in the experiment on HOP-62, in the experiment on LOX IMVI, in the experiment on MOLT-4 and with NCI-H23 was > 100 µM (inactive) each time. In addition, the GI50 in the experiment with NCI-H522, in the experiment with OVCAR-4, in the experiment with OVCAR-8, in the experiment with RPMI-8226, in the experiment with SK-MEL-28 and in the experiment with SNB-75 was > 100 µM (inactive) each time. The GI50 in the experiment on UACC-257 and with UACC-62 was > 100 µM (inactive) in each case.

`Cc1ccc(C(=O)c2nnc(C(=O)c3ccc(C)cc3)nn2)cc1`: the GI50 is 73.5 µM (inactive) in the experiment with A549; 39.4 µM (inactive) in the experiment on HOP-62; 17.6 µM (inactive) in the experiment on LOX IMVI; 34.1 µM (inactive) with MOLT-4; 56 µM (inactive) in the experiment with NCI-H226; > 100 µM (inactive) in the experiment on NCI-H23. The GI50 is 35.5 µM (inactive) in the experiment on NCI-H522; 41.1 µM (inactive) in the experiment with OVCAR-4; 34.9 µM (inactive) in the experiment on OVCAR-8; 30.5 µM (inactive) in the experiment with RPMI-8226; 51.3 µM (inactive) in the experiment with SK-MEL-28; > 100 µM (inactive) with SNB-75. For the same compound, the GI50 is 20.8 µM (inactive) in the experiment with SW-620, 58.3 µM (inactive) in the experiment with UACC-257 and 36.1 µM (inactive) in the experiment on UACC-62.

In the case of `FC(F)(F)c1ccccc1C1SCc2nc3ccccc3n21` (stereo not given), the GI50 was 12.3 µM (inactive) with A498; 41.6 µM (inactive) in the experiment on A549; 23.9 µM (inactive) in the experiment with MOLT-4; 39.4 µM (inactive) in the experiment with NCI-H226; 34 µM (inactive) in the experiment on NCI-H23; 18.3 µM (inactive) in the experiment on NCI-H522. Also, the GI50 in the experiment on OVCAR-8 was 61.4 µM (inactive); in the experiment with RPMI-8226 it was 23 µM (inactive); with SK-MEL-28, 77.8 µM (inactive); with SNB-75, > 100 µM (inactive); in the experiment on SW-620, > 100 µM (inactive); with UACC-257 it was 26.1 µM (inactive). Moreover, the GI50 in the experiment with UACC-62 is 22.5 µM (inactive).

For `O=C(O)CS` [THIOGLYCOLIC ACID], the GI50 in the experiment with A549, with LOX IMVI, in the experiment on MOLT-4, with NCI-H226, in the experiment on NCI-H23 and with NCI-H522 was > 100 µM (inactive) each time. For the same compound, the GI50 in the experiment on OVCAR-4, in the experiment on RPMI-8226, in the experiment with SK-MEL-28, in the experiment with SNB-75, in the experiment on SW-620 and in the experiment with UACC-257 was > 100 µM (inactive) in each case. Besides, the GI50 in the experiment with UACC-62 is > 100 µM (inactive).

For the compound `CCOC(=O)N1c2c(ccn2C)-c2ccn(C)c2N1C(=O)OCC`, the GI50 with A498 was 44.1 µM (inactive); in the experiment with A549, 20.9 µM (inactive); in the experiment with HOP-62 it was > 100 µM (inactive); in the experiment on LOX IMVI, 12.9 µM (inactive); in the experiment on MOLT-4, 6.18 µM (inactive); with NCI-H226, 19.7 µM (inactive). Further, the GI50 in the experiment on NCI-H522 was 11.3 µM (inactive); in the experiment on OVCAR-4 it was > 10 µM (inactive); in the experiment on OVCAR-8, 14.1 µM (inactive); in the experiment on RPMI-8226, 20.9 µM (inactive); with SNB-75 it was 15.5 µM (inactive); in the experiment on SW-620 it was 15.2 µM (inactive). For the same compound, the GI50 in the experiment with UACC-257 is > 10 µM (inactive); in the experiment with UACC-62, 16.7 µM (inactive).

With `O=C(O)CN(c1ccccc1)S(=O)(=O)c1ccc(Cl)cc1`, the GI50 with A498, in the experiment with A549, in the experiment on LOX IMVI, with MOLT-4, in the experiment with NCI-H23 and with NCI-H522 was > 100 µM (inactive) in each case. Further, the GI50 is > 100 µM (inactive) in the experiment on OVCAR-4; > 100 µM (inactive) in the experiment on OVCAR-8; > 100 µM (inactive) in the experiment on RPMI-8226; > 100 µM (inactive) with SK-MEL-28; 59 µM (inactive) in the experiment on SNB-75; > 100 µM (inactive) in the experiment with SW-620. Further, the GI50 in the experiment with UACC-257 and in the experiment with UACC-62 was > 100 µM (inactive) each time.

On to `COc1cc2ccc(CC(=O)O)cc2cc1OC`, for which the GI50 in the experiment with A498, in the experiment on A549, with HOP-62, in the experiment on MOLT-4, in the experiment on NCI-H226 and in the experiment on NCI-H23 was > 100 µM (inactive) throughout. For the same compound, the GI50 with NCI-H522, in the experiment with OVCAR-4, in the experiment with OVCAR-8, in the experiment on RPMI-8226, in the experiment on SK-MEL-28 and in the experiment with SNB-75 was > 100 µM (inactive) in each case. In addition, the GI50 with SW-620, with UACC-257 and in the experiment on UACC-62 was > 100 µM (inactive) in each case.

`NC(=O)c1cc(C2OC(CO)C(O)C2O)nn1-c1ccc([N+](=O)[O-])cc1` (stereo not given): the GI50 in the experiment on A498, in the experiment on A549, with HOP-62, with LOX IMVI, in the experiment with MOLT-4 and with NCI-H226 was > 100 µM (inactive) each time. The GI50 is > 100 µM (inactive) in the experiment with NCI-H23; > 100 µM (inactive) in the experiment with OVCAR-4; > 100 µM (inactive) with OVCAR-8; 88.9 µM (inactive) in the experiment with RPMI-8226; > 100 µM (inactive) in the experiment with SK-MEL-28; > 100 µM (inactive) with SNB-75. Also, the GI50 in the experiment on SW-620 is 43.3 µM (inactive); in the experiment on UACC-257, > 100 µM (inactive); with UACC-62, > 100 µM (inactive).

As to `O=[N+]([O-])c1cccc(C2=NN(c3ccccc3)C3c4cc(Br)ccc4OCC23)c1` (stereo not given), the GI50 with A498, in the experiment on A549, in the experiment on HOP-62, with LOX IMVI, in the experiment on MOLT-4 and in the experiment with NCI-H23 was > 100 µM (inactive) throughout. The GI50 with NCI-H522 was 97.5 µM (inactive); in the experiment with OVCAR-8, > 100 µM (inactive); in the experiment on RPMI-8226, > 100 µM (inactive); in the experiment with SK-MEL-28 it was > 100 µM (inactive); in the experiment on SNB-75, > 100 µM (inactive); in the experiment with SW-620, > 100 µM (inactive). Moreover, the GI50 in the experiment on UACC-257 is > 100 µM (inactive).
